Patent US8716493B2, “Multicyclic compounds and the use thereof” (Cephalon, Inc., priority 2000, dated 2014)

Key:
[1] = target: T1, MLK3 (Homo sapiens, UniProt Q16584); test: Measurement of MLK3 enzymatic activity (32P phosphorylation of myelin basic protein); assay type: biochemical; conditions: percent inhibition at 1 μM; Table 5
T1 construct: 2 μg/mL of baculoviral human GST-MLK1 kinase domain; GST (N); host or cells: baculovirus expression
Method: The activity assay for MLK3 was performed in Millipore Multiscreen plates. Each 50 μL assay mixture contained 50 mM HEPES (pH 7.0), 1 mM EGTA, 10 mM MgCl2, 1 mM DTT, 25 mM β-glycerophosphate, 100 μM ATP, 1 μCi [γ-^32P]ATP, 0.1% BSA, 500 μg/mL myelin basic protein, 2% DMSO, various concentrations of test compounds, and 2 μg/mL of baculoviral human GST-MLK1 kinase domain. Samples were incubated for 15 min at 37° C. The reaction was stopped by adding ice-cold 50% TCA and the proteins were allowed to precipitate for 30 min at 4° C.
(§1) Single-point inhibition data were calculated by comparing PARP, VEGFR2, or MLK3 activity in the presence of inhibitor to activity in the presence of DMSO only. Inhibition curves for compounds were generated by plotting percent inhibition versus log10 of the concentration of compound. IC50 values were calculated by nonlinear regression using the sigmoidal dose-response (variable slope) equation in GraphPad Prism as follows: y=bottom+(top−bottom)/(1+10^(log IC50^−x)*Hillslope) where y is the % activity at a given concentration of compound, x is the logarithm of the concentration of compound, bottom is the % inhibition at the lowest compound concentration tested, and top is the % inhibition at the highest compound concentration examined. The values for bottom and top were fixed at 0 and 100, respectively. IC50 values were reported as the average of at least three separate determinations.
(§2) For some compounds, inhibiting data is presented as percent inhibition at a specified concentration. Compounds are tabulated together with compound number, substituents, and enzyme inhibition data.

[2] = target: T2, human VEGFR2 cytoplasmic domain (Homo sapiens, UniProt P35968); test: Measurement of VEGFR2 kinase enzymatic activity (time-resolved fluorescence, PLC-γ/GST substrate); assay type: biochemical; conditions: Table 5; for VEGFR2 % @ 300 nM: percent inhibition at 300 nM
T2 construct: recombinant human baculovirus-expressed human VEGFR2 cytoplasmic domain; host or cells: baculovirus-expressed
Method: A 96-well FluoroNUNC MaxiSorp plate was coated with 100 μL/well of recombinant human PLC-γ/GST substrate solution at a concentration of 40 μg/mL in Tris-buffered saline (TBS). The VEGFR2 activity was assayed in a 100 μL assay mixture containing 50 mM HEPES (pH 7.4), 30 μM ATP, 10 mM MnCl2, 0.1% BSA, 2% DMSO, and 150 ng/mL recombinant human baculovirus-expressed human VEGFR2 cytoplasmic domain (prephosphorylated for 60 min at 4° C. in the presence of 30 μM ATP and 10 mM MnCl2 prior to use). The kinase reaction was allowed to proceed at 37° C. for 15 min. The europium-labeled anti-phosphotyrosine detection antibody was added at 1:5000 dilution in block buffer (3% BSA in TBST). After 1 hour of incubation at 37° C., 100 μL of enhancement solution (Wallac #1244-105) was added and the plate was gently agitated. After 5 min, the time-resolved fluorescence of the resulting solution was measured using the BMG PolarStar (Model #403) using excitation and emission wavelengths of 340 nm and 615 nm, respectively, a collection delay of 400 μsec and an integration time of 400 μsec.
as §1
as §2, with “The following Examples 5 to 10 present PARP, VEGFR2, and MLK3 inhibiting data for compounds of the present invention. […] For” for “For”

[3] = tested on: mouse MCA occlusion (suture thread method); conditions: mice; intracerebroventricular administration; two hour MCA occlusion; cited from earlier work
[4] = tested on: suture occlusion model of focal ischemia; conditions: rat; 10 mg/kg; cited from earlier work
[5] = tested on: rat model of focal cerebral ischemia; conditions: i.p. 10 mg/kg two hours prior to and two hours after initiation of ischemia; cited from earlier work

T2 sequence (P35968 786-1356 limits assumed): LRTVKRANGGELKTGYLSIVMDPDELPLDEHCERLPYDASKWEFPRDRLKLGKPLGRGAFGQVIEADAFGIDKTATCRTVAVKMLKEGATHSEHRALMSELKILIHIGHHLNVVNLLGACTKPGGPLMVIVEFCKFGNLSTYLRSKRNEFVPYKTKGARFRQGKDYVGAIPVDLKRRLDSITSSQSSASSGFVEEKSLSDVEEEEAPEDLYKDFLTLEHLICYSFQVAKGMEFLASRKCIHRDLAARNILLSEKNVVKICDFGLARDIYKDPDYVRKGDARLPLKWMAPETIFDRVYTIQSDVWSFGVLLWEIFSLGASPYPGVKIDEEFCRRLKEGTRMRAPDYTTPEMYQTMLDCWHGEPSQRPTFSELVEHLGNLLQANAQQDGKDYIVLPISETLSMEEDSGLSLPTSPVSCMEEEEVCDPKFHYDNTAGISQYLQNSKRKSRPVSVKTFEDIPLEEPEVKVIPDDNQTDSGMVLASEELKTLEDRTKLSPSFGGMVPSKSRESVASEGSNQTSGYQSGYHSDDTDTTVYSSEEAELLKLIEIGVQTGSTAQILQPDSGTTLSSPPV
T1 sequence (Q16584 117-379 limits assumed): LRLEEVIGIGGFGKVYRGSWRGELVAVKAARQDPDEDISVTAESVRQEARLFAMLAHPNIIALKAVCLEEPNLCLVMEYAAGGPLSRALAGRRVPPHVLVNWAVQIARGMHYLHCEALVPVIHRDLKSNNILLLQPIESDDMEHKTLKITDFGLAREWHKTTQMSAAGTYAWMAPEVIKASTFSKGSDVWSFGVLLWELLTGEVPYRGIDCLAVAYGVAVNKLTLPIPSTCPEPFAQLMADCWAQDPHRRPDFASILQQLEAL

Compound	MLK3 % @ 1 μM [1] [%]	IC50 [2] [nM]	further results
O=C1NC(=O)c2c1c1occc1c1[nH]c3ccccc3c21 [Compound 11g, 5,7-Dihydrofuran[a-3,2]pyrrolo[3,4-c]carbazole-5(6H), 7(11H)-dione]	16	–	VEGFR2 % @ 300 nM [2]: 8%
NC(=O)c1cccc(N)c1 [Compound 3-AB, 3-aminobenzamide]	–	–	decrease in infarct volume [3]: 47%; infarct volume [4]: significantly reduced
O=C1NC(=O)c2c1c1c(c3[nH]c4ccccc4c23)CCCC1 [Compound 11b, 5,7,9,10,11,12-Hexahydrocyclohexano[a]pyrrolo[3,4-c]carbazole-5(6H), 7(8H)-dione]	26	698	–
O=C1NC(=O)c2c1c1ccccc1c1[nH]c3ccccc3c21 [Compound 11e]	35	166	–
O=C1NCCc2c(OCCCCN3CCCCC3)cccc21 [DPQ, 3,4-dihydro-5-[4-(1-piperidinyl)butoxy]-1(2H)-isoquinolinone]	–	–	reduction in infarct volume [5]: 54%
O=C1NC(=O)c2c1c1c(c3[nH]c4ccccc4c23)CCO1 [Compound 11f, 5,7,10,11-Tetrahydrofuran[a-3,2]pyrrolo[3,4-c]carbazole-5(6H), 7(9H)-dione]	62	–	VEGFR2 % @ 300 nM [2]: 3%
9-Ethyl-8-propyl-5,7-dihydropyrrolo[3,4-c]carbazole-5(6H), 7(10H)-dione [Compound 11c]	46	–	VEGFR2 % @100 nM ([2]; percent inhibition at 100 nM): 0% @100 nM
O=C1NC(=O)c2c1c1cnccc1c1[nH]c3ccccc3c21 [Compound 12a]	74	235	–
Cn1c2ccccc2c2c3c(c4c(c21)CCCC4)C(=O)NC3=O [Compound 11d]	52	778	–
O=C1NCc2c3c(c4[nH]c5ccccc5c4c21)CCC3 [Compound 11a, 5,7,8,9,10,11-Hexahydrocyclopent[a]pyrrolo[3,4-c]carbazole-5(6H)-one]	–	477	–
